# Experimental data: patent US5480879A, “Quinolonecarboxylic acids” (Bayer Aktiengesellschaft, priority 1992, dated 1996)
# Tests used:
# Assay in all cases: MIC in microtitre plates, brain-heart infusion broth
# Type in all cases: cell-based
# [1] = test system: Staphylococcus aureus ICB 25701; settings: ICB25701, about 10^5 microorganisms/ml inoculum
# Source text: (§1) The determination of the "minimum inhibitory concentrations" (MIC) was effected in mitrotitre plates using brain-heart infusion broth, with about 10^5 microorganisms/ml being employed as the inoculum.
# [2] = test system: Staphylococcus aureus 133; settings: about 10^5 microorganisms/ml inoculum
# Source text: as §1
# Klebsiella sp. 63 = settings: about 10^5 microorganisms/ml inoculum
# Source text: as §1
# [3] = test system: Enterococcus faecalis 27101; settings: about 10^5 microorganisms/ml inoculum
# Source text: as §1
# [4] = test system: Serratia marcescens 16040; settings: about 10^5 microorganisms/ml inoculum
# Source text: as §1
# [5] = test system: Enterococcus faecalis 9790; settings: about 10^5 microorganisms/ml inoculum
# Source text: as §1
# Escherichia coli Neumann = settings: about 10^5 microorganisms/ml inoculum
# Source text: as §1
# [6] = test system: Staphylococcus aureus ICB 25768; settings: ICB25768, about 10^5 microorganisms/ml inoculum
# Source text: as §1
# [7] = test system: Staphylococcus aureus 1756; settings: about 10^5 microorganisms/ml inoculum
# Source text: as §1
MIC [1],MIC [2],MIC (Klebsiella sp. 63),MIC [3],MIC [4],MIC [5],MIC (Escherichia coli Neumann),MIC [6],MIC [7],Compound
0.25 µg/mL,0.03 µg/mL,0.125 µg/mL,0.25 µg/mL,4 µg/mL,0.25 µg/mL,0.03 µg/mL,2 µg/mL,0.004 µg/mL,"O=C(Cc1ccccc1)N[C@@H]1C(=O)N2C(C(=O)O)=C(CN3CCC[C@H]4CN(c5c(F)cc6c(=O)c(C(=O)O)cn(C7CC7)c6c5Cl)C[C@H]43)CS[C@H]12 [A, 7-[2-([6R,7R ]-2-Carboxy-8-oxo-7-phenylacetylamino-5-thia-1-aza-bicyclo[4.2.0]oct-2-en-3-ylmethyl)-[1S,6S]-2,8-diazabicyclo[4.3.0]non-8-yl]-8-chloro-1-cyclopropyl-6-fluoro-1,4-dihydro-4-oxo-3-quinolinecarboxylic acid]"
32 µg/mL,0.125 µg/mL,1 µg/mL,8 µg/mL,16 µg/mL,8 µg/mL,0.25 µg/mL,128 µg/mL,0.03 µg/mL,O=C(Cc1ccccc1)N[C@@H]1C(=O)N2C(C(=O)O)=C(CN3CCN(c4c(F)cc5c(=O)c(C(=O)O)cn(C6CC6)c5c4Cl)CC3)CS[C@H]12 [B]
